Square brackets hold non-standard residues; d marks the D form. Ends that are not written are not given here. Aib = CC(C)(N)C(=O)O
Assays:
[1] = tested on: human W9-hESCs; assay: TUNEL staining for apoptotic cell death after H2O2 injury; format: cell-based; conditions: H2O2 oxidative stress, 24 hours; 100 fM NRP2945
Method: Neuronal differentiation was achieved using the noggin induction method described for mouse neurospheres as adapted by Dottori for human neurospheres (Dottori & Pera, 2007). The colonies were maintained at 37° C., with 5% CO2 in hESC medium supplemented with 500 ng/ml of Noggin for 14 days while replacing Noggin every other day.
At this point, the cells were washed with PBS and the colonies were again mechanically dissociated, but this time the central (differentiated) part of the colony was also cut into smaller pieces using a 26-gauge needle. […]
The media was replaced with fresh NBM-AO and the cells were incubated for a further 20 hours containing drug, before again measuring LDH. Oxidative stress was induced by adding 50 μM fresh H2O2 (Sigma, H1009) to the growth factor negative NBM on initiation of the experiment with continued culture for 4 hours when LDH was measured and NBM-AO without H2O2 was returned to the culture which was maintained for a further 20 hours before again measuring LDH. […]
Tunnel positive cells, wells were imaged and the images re-coded independently before quantitation. No additional blinding was performed for the machine read LDH assay process.

[2] = tested on: human DU-145 prostate cancer cells; assay: DU-145 Boyden chamber motility bioassay; format: cell-based; conditions: 0.1 ng/ml NRP2945 adhered to Boyden chamber bottom plate, 24 hours of incubation
Source text: Human epithelial DU-145 cells were obtained from ATCC (HTB-81). The DU-145 cell line was originally isolated from a metastatic prostate-derived cancer formed in the brain. The cells are adherent, and co-express CXCR4 and CCR3 receptors similar to neuroblasts and neurons. For this experiment, DU-145 cells were cultivated in ATCC-formulated Eagle's Minimum Essential Medium with 10% FBS in 5% CO2 at 37′C. The cells were then subcultivated as follows.
The media was removed and discarded. The cell layer was briefly rinsed with 0.25% (w/v) trypsin and 0.5 mM EDTA to remove all remaining trypsin inhibitors from the serum. To each flask, 2-3 ml of trypsin-EDTA solution was added. This was incubated at room temperature.
The cells were observed under an inverted microscope until dislodgement (between 10-15 minutes). Shaking was avoided to prevent the cells from clumping. […]
The Boyden chamber inserts (Corning) were coated for 2 hours at 37° C. with […] poly-D-lysine (PDL; culture grade from Invitrogen). […] The coated Boyden chamber could then be refrigerated, stored, and ready for cell seeding. […]
Cells were counted and 50,000 cells were seeded into one insert of a 12-well Boyden chamber. […]
DU-145 cells attached to the lower insert membrane were visualized and counted with standard cell visualization methods using hematoxyclin staining. […]

Q: What does the source list for “Gly Arg Arg Ala Ala Pro Gly Arg Aib Gly Gly (GRRAAPGR[Aib]GG) [NRP2945, synthetic 11-mer peptidomimetic optimized for stability and pharmacokinetics]”?
A: cells spared from apoptosis (TUNEL) [1]: 56.2%; decrease of migrating cells [2]: 36%

— patent US20160031937A1, “NEURAL REGENERATION PEPTIDES AND USES THEREFOR” (CURONZ HOLDINGS COMPANY LIMITED, priority 2013, published 2016)
